Measured values reported in BindingDB's records for doi:10.1016/j.bmcl.2004.08.009 (Deltagen Research Laboratories, 2004).

How the values were obtained:
[1] = biological target: C-C chemokine receptor type 2 (Homo sapiens, UniProt P41597); assay: Inhibition of MCP-1 induced chemotaxis in THP-1 cells
[2] = Inhibition of MCP-1 induced chemotaxis in THP-1 cells

Chain of C-C chemokine receptor type 2 (P41597 whole entry): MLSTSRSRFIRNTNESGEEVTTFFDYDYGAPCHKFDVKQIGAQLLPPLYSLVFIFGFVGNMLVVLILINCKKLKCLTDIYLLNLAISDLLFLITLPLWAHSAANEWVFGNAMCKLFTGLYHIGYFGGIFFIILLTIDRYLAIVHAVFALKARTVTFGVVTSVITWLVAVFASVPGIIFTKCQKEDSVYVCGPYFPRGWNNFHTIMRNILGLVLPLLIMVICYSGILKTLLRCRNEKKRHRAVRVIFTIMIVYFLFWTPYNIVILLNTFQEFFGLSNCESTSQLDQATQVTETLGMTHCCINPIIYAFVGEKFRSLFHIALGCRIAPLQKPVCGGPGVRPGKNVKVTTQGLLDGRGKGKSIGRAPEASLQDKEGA

Structure (SMILES)	EC50 [1]	EC50 [2]
O=C(CNC(=O)c1cccc(C(F)(F)F)c1)N[C@H]1CCN(Cc2ccc(Cl)cc2)C1	–	360 nM
O=C(CNC(=O)c1cccc(C(F)(F)F)c1)N[C@@H]1CCN(Cc2ccc(Cl)cc2)C1 [(R)-N-(2-(1-(4-chlorobenzyl)pyrrolidin-3-ylamino)-2-oxoethyl)-3-(trifluoromethyl)benzamide]	–	20 nM
O=C(CNC(=O)c1cccc(C(F)(F)F)c1)NCC1CCN(Cc2ccc(Cl)cc2)CC1 [N-({[1-(4-Chloro-benzyl)-piperidin-4-ylmethyl]-carbamoyl}-methyl)-3-trifluoromethyl-benzamide]	–	40 nM

The next lines start with the values.

EC50 [1]	EC50 [2]	Structure (SMILES)
810 nM	–	O=C(CNC(=O)c1cccc(C(F)(F)F)c1)NC[C@H]1CCCN1Cc1ccc(Cl)cc1
–	610 nM	O=C(CNC(=O)c1cccc(C(F)(F)F)c1)NC1CCCN(Cc2ccc(Cl)cc2)C1 (stereo not given) [N-{[1-(4-Chloro-benzyl)-piperidin-3-ylcarbamoyl]-methyl}-3-trifluoromethyl-benzamide]
